Laboratory results as given in patent US7547804B2, “Compounds, compositions, and methods employing same” (Myriad Genetics, Inc., priority 2002, dated 2009).

System: LNCaP cell lines
Assay: WST-1 Cell Proliferation and Viability Assay
Format: cell-based
Settings: Homo sapiens, LNCaP cells
Protocol: WST-1 Cell Proliferation and Viability Assay
Cell proliferation and cell viability was assessed using the tetrazolium salt WST-1 (Roche Applied Science, Indianapolis Ind.). The assay is based on the cleavage of WST-1 (light red) by mitochondrial dehydrogenase causing the formation of formazan (dark red), which can be measured on an optical density (O.D.) reader. LNCaP cell lines were plated in 96 well tissue culture plates (Corning Costar, N.Y.) at a density of 5000 cells/well in 150 μl complete media phenol-red free (RPMI-1640 [Invitrogen, Carlsbad Calif.] and 10% fetal calf serum). This plate is termed the assay plate. After the cells are plated, they are then incubated overnight at 37 degrees Celsius in a humidified chamber containing 5% CO2 (incubator).
Compounds are added to the assay plate in 50 μl of complete media and 0.4% DMSO (v:v) making the final DMSO concentration 0.1%. The assay plate is then returned to the incubator for 18-72 hours. WST-1 reagent is then added (20 μl/well) and the plate is placed on an ELISA plate shaker for 30 minutes at room temperature. Plates are then transferred back to the incubator for an additional 3 hours. Plates are then read on a 96 well plate O.D. reader at A490-A650.

[1] = compound incubation 18-72 hours
[2] = flagged "Estimated": based on actual data at different concentrations

Row | SMILES | EC50 [1] [µM] | EC50 [2] [µM]
1 | Cc1ccc(C(=O)Nc2cccc(OCCc3ccccc3)c2)c(O)c1 [Compound 211] | 22 | 
2 | COC(=O)c1ccc(OCCc2ccccc2)c(NC(=O)c2cc(Cl)ccc2O)c1 [Compound 325] | 3.3 | 
3 | O=C(NCc1cc(C(F)(F)F)ccc1Cl)c1cc(Cl)ccc1O [Compound 318] |  | 40
4 | Cc1ccccc1COc1cccc(NC(=O)c2cc(Cl)ccc2O)c1 [Compound 84] | 14 | 
5 | COc1ccccc1CCOc1cccc(NC(=O)c2cc(Br)cc(F)c2O)c1 [Compound 346] | 28 | 
6 | CC(C)c1cccc(C(=O)Nc2cccc(OCCc3ccccc3)c2)c1O [Compound 201] | 33 | 
7 | Cc1cc(C)c(CCOc2cccc(NC(=O)c3cc(Cl)ccc3O)c2)c(C)c1 [Compound 62] | 4 | 
8 | COC(=O)C=Cc1ccccc1CCOc1ccc(Cl)cc1NC(=O)c1cc(Cl)ccc1O [Compound 302] | 3 | 
9 | Cc1ccc(CNC(=O)c2cc(Cl)ccc2O)cc1-c1ccccc1 [Compound 291] |  | 30
10 | O=C(Nc1cc(Cl)ccc1OCCCc1ccccc1)c1cc(Cl)ccc1O [Compound 75] | 1 | 
11 | O=C(NCCc1cccc(OCc2ccccc2)c1)c1cc(Cl)ccc1O [Compound 90] | 18 | 
12 | O=C(NCc1ccc(Cl)c(C(F)(F)F)c1)c1cc(Cl)ccc1O [Compound 290] |  | 30
13 | COc1ccc(OCCc2ccccc2C(F)(F)F)c(NC(=O)c2cc(Cl)ccc2O)c1 [Compound 170] | 4 | 
14 | CCC(COc1cccc(NC(=O)c2cc(Cl)ccc2O)c1)c1ccccc1 (stereo not shown) [Compound 42] | 3 | 
15 | Cc1c(CNC(=O)c2cc(Cl)ccc2O)cccc1-c1ccccc1 [Compound 120] |  | 18
16 | O=C(c1ccccc1)c1ccc(NC(=O)c2cc(Cl)ccc2O)cc1 [Compound 25] |  | 20
17 | COc1ccccc1CCOc1cccc(NC(=O)c2cc(-c3ccc4ccccc4c3)ccc2O)c1 [Compound 347] | 6 | 

Row | SMILES | EC50 [1] [µM] | EC50 [2] [µM]
18 | COc1ccccc1CCOc1cccc(NC(=O)c2ccc(C)cc2O)c1 [Compound 208] | 21 | 
19 | O=C(Nc1cc(C(F)(F)F)ccc1OCc1cccc(OC(F)(F)F)c1)c1cc(Cl)ccc1O [Compound 334] | 9 | 
20 | COc1ccc(O)c(C(=O)Nc2cccc(OCCc3ccccc3OC)c2)c1 [Compound 186] | 22 | 
21 | COCCN(C)c1ccc(NC(=O)c2cc(Cl)ccc2O)c(OCCc2cccc(C(F)(F)F)c2)c1 [Compound 369] | 4 | 
22 | COc1cccc(CCOc2ccc(Cl)cc2NC(=O)c2cc(Cl)ccc2O)c1 [Compound 112] | 2 | 
23 | CN(CC(=O)OC(C)(C)C)c1ccc(NC(=O)c2cc(Cl)ccc2O)c(OCCc2cccc(C(F)(F)F)c2)c1 [Compound 373] | 2.9 | 
24 | O=C(Nc1cc(C(F)(F)F)ccc1OCc1cccc(C(F)(F)F)c1)c1cc(Cl)ccc1O [Compound 327] | 2.1 | 
25 | O=C(NCc1ccc(OCCc2ccccc2)cc1)c1cc(Cl)ccc1O [Compound 53] | 23 | 
26 | CC(C)OCCOc1ccc(C(F)(F)F)cc1NC(=O)c1cc(Cl)ccc1O [Compound 296] | 0.8 | 
27 | COC(=O)[C@H]1CCCN1c1ccc(NC(=O)c2cc(Cl)ccc2O)c(OCCc2cccc(C(F)(F)F)c2)c1 [Compound 359] | 3.1 | 
28 | COc1ccccc1CCOc1cccc(NC(=O)c2cc(Cl)ccc2[N+](=O)[O-])c1 [Compound 229] |  | 30
29 | O=C(Nc1cc(C(F)(F)F)ccc1OCCc1cccc(Cl)c1)c1cc(Cl)ccc1O [Compound 248] | 0.5 | 
30 | O=C(Nc1cccc(OCCc2ccccc2)c1)c1cc(Cl)cc([N+](=O)[O-])c1O [Compound 123] |  | 30
31 | O=C(Nc1cc(C(F)(F)F)ccc1OCC(F)(F)F)c1cc(Cl)ccc1O [Compound 278] |  | 2
32 | O=C(Nc1ccc(OCCc2ccccc2)cc1)c1cc(Cl)ccc1O [Compound 63] | 20 | 
33 | O=C(Nc1cc(C(F)(F)F)ccc1OCCOCCCl)c1cc(Cl)ccc1O [Compound 299] | 1 | 

Now from value to compound:

Row | EC50 [1] [µM] | EC50 [2] [µM] | SMILES
34 | 2 |  | O=C(Nc1cc(C(F)(F)F)cc(Cl)c1OCCc1ccccc1C(F)(F)F)c1cc(Cl)ccc1O [Compound 251]
35 | 1 |  | Cc1cc(C)c(CCOc2ccc(Cl)cc2NC(=O)c2cc(Cl)ccc2O)c(C)c1 [Compound 81]
36 | 1 |  | O=C(Nc1cc(C(F)(F)F)cc(Cl)c1OCCc1cccc(C(F)(F)F)c1)c1cc(Cl)ccc1O [Compound 252]
37 | 15 |  | Cc1ccccc1CCOc1cccc(NC(=O)c2cc(Cl)ccc2O)c1 [Compound 55]
38 | 1 |  | O=C(Nc1cc(C(F)(F)F)ccc1Oc1ccc(Cl)c2ccccc12)c1cc(Cl)ccc1O [Compound 264]
39 | 2 |  | O=C(Nc1cc(Cl)ccc1OCCc1ccccc1)c1cc(Cl)ccc1O [Compound 22]
40 | 12 |  | O=C(Nc1cccc(OCc2ccccc2)c1)c1cc(Cl)ccc1O [Compound 15]
41 | 3 |  | N#Cc1ccc(OCCc2ccccc2C(F)(F)F)c(NC(=O)c2cc(Cl)ccc2O)c1 [Compound 140]
42 | 21 |  | COc1ccccc1CCOc1cccc(NC(=O)c2ccccc2O)c1 [Compound 198]
43 | 0.9 |  | O=C(Nc1cc(C(F)(F)F)ccc1OCCc1ccsc1)c1cc(Cl)ccc1O [Compound 245]
44 | 10 |  | O=C(Nc1ccccc1C(F)(F)F)c1cc(Cl)ccc1O [Compound 58]
45 | 1 |  | O=C(Nc1cc(Cl)ccc1OCCc1ccc(C(F)(F)F)cc1)c1cc(Cl)ccc1O [Compound 99]
46 | 0.67 |  | CCCOCCOc1ccc(C(F)(F)F)cc1NC(=O)c1cc(Cl)ccc1O [Compound 301]
47 | 31 |  | O=C(Nc1cccc(NCc2ccccc2)c1)c1cc(Cl)ccc1O [Compound 28]
48 | 18 |  | O=C(NCc1cccc(-c2cccc(C(F)(F)F)c2)c1)c1cc(Cl)ccc1O [Compound 304]
49 | 6 |  | COc1cccc(-c2ccc(O)c(C(=O)Nc3cccc(OCCc4ccccc4OC)c3)c2)c1 [Compound 235]
50 | 9 |  | COc1ccccc1CCOc1cccc(NC(=O)c2cc(-c3ccc(Cl)c(Cl)c3)ccc2O)c1 [Compound 341]
51 | 0.9 |  | O=C(Nc1cc(Cl)ccc1OCCc1ccc(Cl)cc1)c1cc(Cl)ccc1O [Compound 87]
52 | 19 |  | COc1ccccc1CCOc1cccc(NC(=O)c2cc(F)ccc2O)c1 [Compound 183]
53 | 14 |  | CCOc1cc(CNc2cccc(NC(=O)c3cc(Cl)ccc3O)c2)ccc1OCc1ccccc1 [Compound 10]
54 | 1 |  | O=C(Nc1cc(Cl)ccc1OCCc1ccccc1Cl)c1cc(Cl)ccc1O [Compound 110]
55 | 2 |  | O=C(Nc1cc(Cl)cc(Cl)c1OCCc1ccc(CC(F)(F)F)cc1)c1cc(Cl)ccc1O [Compound 163]
56 | 2 |  | CC(C)COc1ccc(Cl)cc1NC(=O)c1cc(Cl)ccc1O [Compound 246]

Row | EC50 [1] [µM] | EC50 [2] [µM] | SMILES
57 | 0.9 |  | O=C(Nc1cc(C(F)(F)F)ccc1OCCC(F)(F)F)c1cc(Cl)ccc1O [Compound 271]
58 | 6 |  | O=C(Nc1cccc(OCCc2cccc(C(F)(F)F)c2)c1)c1cc(Cl)ccc1O [Compound 125]
59 | 4 |  | Cc1ccc(OCCc2ccccc2)c(NC(=O)c2cc(Cl)ccc2O)c1 [Compound 149]
60 | 1 |  | Cc1cccc(CCOc2ccc(Cl)cc2NC(=O)c2cc(Cl)ccc2O)c1 [Compound 77]
61 | 4 |  | Cc1ccc(NC(=O)c2cc(Cl)ccc2O)cc1OCCc1ccccc1 [Compound 45]
62 | 18 |  | CC(C)Cc1ccc(CNc2cccc(NC(=O)c3cc(Cl)ccc3O)c2)cc1 [Compound 13]
63 |  | 25 | COc1ccccc1CCOc1cccc(NC(=O)c2cccc(F)c2O)c1 [Compound 353]
64 | 6 |  | COc1ccccc1CCOc1ccc(Cl)c(NC(=O)c2cc(Cl)ccc2O)c1 [Compound 32]
65 | 4 |  | COc1ccccc1CCNc1ccc(C(F)(F)F)cc1NC(=O)c1cc(Cl)ccc1O [Compound 274]
66 | 21 |  | O=C(Nc1cccc(CNc2ccccc2)c1)c1cc(Cl)ccc1O [Compound 36]
67 | 2 |  | Cc1ccc(CCOc2ccc(Cl)cc2NC(=O)c2cc(Cl)ccc2O)cc1 [Compound 78]
68 | 1 |  | O=C(Nc1cc(Cl)ccc1OCCc1ccc(OC(F)(F)F)cc1)c1cc(Cl)ccc1O [Compound 161]
69 | 16 |  | O=C(Nc1ccc(OCCc2ccccc2)cc1C(F)(F)F)c1cc(Cl)ccc1O [Compound 156]
70 | 0.85 |  | Cc1ccccc1COc1ccc(C(F)(F)F)cc1NC(=O)c1cc(Cl)ccc1O [Compound 312]
71 | 3 |  | O=C(Nc1cc(C(F)(F)F)ccc1NCc1cccc2ccccc12)c1cc(Cl)ccc1O [Compound 277]
72 | 1 |  | Cc1ccccc1CCOc1ccc(Cl)cc1NC(=O)c1cc(Cl)ccc1O [Compound 76]
73 | 23 |  | COc1ccc(C(=O)Nc2cccc(OCCc3ccccc3OC)c2)c(O)c1 [Compound 182]
74 | 19 |  | CN(CC(=O)O)c1ccc(NC(=O)c2cc(Cl)ccc2O)c(OCCc2cccc(C(F)(F)F)c2)c1 [Compound 375]
75 | 2 |  | O=C(Nc1cc(C(F)(F)F)cc(Cl)c1OCCc1ccc(C(F)(F)F)cc1)c1cc(Cl)ccc1O [Compound 130]
76 |  | 32 | O=C(NCc1cccc(-c2ccccc2)c1)c1cccc(-c2ccccc2)c1O [Compound 218]
77 | 8 |  | Cc1cccc(NC(=O)c2cc(Cl)ccc2O)c1 [Compound 113]
78 | 7 |  | COc1ccccc1CCOc1cccc(NC(=O)c2cc(-c3cccc(C(F)(F)F)c3)ccc2O)c1 [Compound 352]
79 | 2 |  | CCC(COc1ccc(C)c(NC(=O)c2cc(Cl)ccc2O)c1)c1ccccc1 (stereo not shown) [Compound 128]
